According to US20050148500A1, “Dopaminergic stimulatory factor” (priority 2001, published 2005):

Test system: MN9D cells
Assay: Dopamine content of MN9D cells in monolayer culture after incubation with protein (HPLC)
Assay type: cell-based, mouse
Experimental: […] The MN9D cells on each plate were then collected in 10 ml of CMF, transferred to 15 ml centrifuge tubes and centrifuged at 1000×g for 5 min. The supernatant was removed and 600 μl of 0.5 N perchloric acid was added to the cell pellet which was then sonicated on ice for 10-15 s. The cell extract was centrifuged at 4000×g for 30 min and the supernatant stored at −80° C. for subsequent high pressure liquid chromatography (HPLC) analysis of MN9D cell dopamine content. The pellet was stored at −20° C. for subsequent protein analysis.
A second experiment was then conducted to determine whether this effect was due to a change in the doubling time (24 h) of the MN9D cells with increased cell production or was the result of an increase in cellular dopamine. […] Cells were removed from the plates and cell numbers determined by counting in a hematocytometer. Dopamine content was determined by HPLC analysis. […]
After this period, the MN9D cells on each plate are collected in 10 ml of CMF, transferred to 15 ml centrifuge tubes and centrifuged at 1000×g for 5 min. […] MN9D cell DA content is determined by reverse phase high pressure liquid chromatography with electrochemical detection (HPLC-ED) as previously described (Heller et al., 1993). […]

insulin growth factor II [IGF-II]
effect on MN9D DA levels: without effect
